Results taken from patent US5004758A, “Water soluble camptothecin analogs useful for inhibiting the growth of animal tumor cells” (priority 1988, dated 1991).
Counter-ions that a name gives are not always drawn. Like-named read-outs stand apart in the source and are kept apart here.

What was measured:
P388/Mitoxantrone = assay: ip P388/Mitoxantrone multidrug resistant subline in mice; settings: for ILS / NCK (net tumor cell kill): P388/Mitoxantrone, ip, Days 1 and 5
Experimental: (§2) Increase in lifespan (ILS) is based on median survival time of groups of 6 mice. Net tumor cell kill (NCK) is calculated from median survival time by standard methods, since survival time is a linear function of the log tumor cell burden.
For the leukemias, these tumors are maintained in DBA/2 mice. […] The leukemias and the M5076 sarcoma are serially transplanted i.p. as ascites cell suspensions while the B16 melanoma lines and the colon carcinoma 26 are serially transplanted as s.c. solid tumors.
For therapeutic trials, tumors are aseptically removed from donor mice and prepared as suspensions for implantation ip into test animals. […] The test animals for the other tumor models are syngeneic female F1 hybrid B6D2F1 mice (C57B1/6 x DBA/2). The inoculum level varies with the type of tumor: P388 leukemia is inoculated at 10^6 cells per mouse, L1210 leukemia at 10^5 or 10^6 cells per mouse, M5076 sarcoma at 5×10^6 cells per mouse. […] After tumor inoculation, mice randomized to treatment groups comprised of 6-8 mice each. In each experiment, there are three groups of untreated control mice. Drugs are dissolved or suspended in appropriate aqueous vehicles and given by a variety of routes and schedules of administration over a range of dose levels. Animals are housed in shoebox cages and are monitored daily for mortality for 30 (L1210), 45 (P388) or 60 (B16, M5076, colon 26) days.

[1] = system: sc Madison lung carcinoma; assay: sc-implanted Madison lung carcinoma in mice; type: in vivo, mouse
Description: (§1) The inoculum varies with the tumor.

ip colon carcinoma 26 = assay: ip-implanted colon carcinoma 26 in mice; type: in vivo, mouse; settings: ip Colon 26, B/ip (Days 1, 5, 9 and 13)
Description: (§3) Tumors used in these studies--P388 leukemia and its doxorbicin--and mitoxanrone-resistant sublines, L1210 leukemia, B16 melanoma, B16 melanoma/F10 subline, M5076 sarcoma and colon carcinoma 26--are maintained by serial transplantation in syngeneic strains of mice. For the leukemias, these tumors are maintained in DBA/2 mice. The M5076 sarcoma, the B16 melanoma and its F10 subline are maintained in C57B1/6 mice and the colon sarcinoma 26 is maintained in BALB/c mice. The leukemias and the M5076 sarcoma are serially transplanted i.p. as ascites cell suspensions while the B16 melanoma lines and the colon carcinoma 26 are serially transplanted as s.c. solid tumors.
(§4) For therapeutic trials, tumors are aseptically removed from donor mice and prepared as suspensions for implantation ip into test animals. The test animals for the colon carcinoma 26 are female BALB/c mice (20-25 gm). The test animals for the other tumor models are syngeneic female F1 hybrid B6D2F1 mice (C57B1/6 x DBA/2). The inoculum level varies with the type of tumor: P388 leukemia is inoculated at 10^6 cells per mouse, L1210 leukemia at 10^5 or 10^6 cells per mouse, M5076 sarcoma at 5×10^6 cells per mouse. For implantation of the B16 melanoma lines and the colon carcinoma 26, s.c. tumors from donor mice are minced and homogenized in loose fitting teflon glass homogenizer to give a tumor brei. The inoculum levels are 0.5 ml of a 10 percent (w:v) brei of the B16 melanoma lines and 0.5 ml of a 5 percent (w:v) brei of colon carcinoma 26. After tumor inoculation, mice randomized to treatment groups comprised of 6-8 mice each. In each experiment, there are three groups of untreated control mice. Drugs are dissolved or suspended in appropriate aqueous vehicles and given by a variety of routes and schedules of administration over a range of dose levels. Animals are housed in shoebox cages and are monitored daily for mortality for 30 (L1210), 45 (P388) or 60 (B16, M5076, colon 26) days.

iv Lewis lung carcinoma = assay: iv-implanted Lewis lung carcinoma in mice; type: in vivo, mouse; settings: for Increase in lifespan (ILS) / Long-Term Survivors: iv Lewis lung; for Increase in lifespan (ILS): B/ip (Days 1, 5, 9 and 13); for Long-Term Survivors: B/ip
Description: (§5) Tumors used in these studies P388 leukemia, L1210 leukemia and Lewis lung carcinoma--are maintained by serial transplantation in syngeneic strains of mice, DBA/2 for the leukemias and C57B1/6 for Lewis lung carcinoma. The leukemias are serially transplanted i.p. as ascites cell suspensions while the Lewis lung carcinoma is serially transplanted as a s.c. solid tumor.
(§6) For therapeutic trials, tumors were aseptically removed from donor mice and prepared as suspensions for implantation into test animals which for each tumor are syngeneic female F1 hybrid B6D2F1 mice (C57B1/6×DBA/2). The inoculum level varies with the type of tumor: P388 leukemia is inoculated at 10^6 cells per mouse, L1210 leukemia at 10^5 or 10^6 cells per mouse, and Lewis lung carcinoma at 0.25 ml of a 10 percent (w:v) brei. […] After tumor inoculation, mice are randomized to treatment groups of 6 to 8 mice each. In each experiment, there are three groups of untreated control mice.
(§7) Drugs are dissolved or suspended in appropriate aqueous vehicles and given i.p. or i.v. on various treatment schedules over a range of dosage levels. Animals are housed in shoebox cages and monitored daily for mortality for 30 (L1210), 45 (P388) or 60 (Lewis lung) days.

in vivo [2] = settings: mouse, ip
Experimental: as §2
Animals were implanted ip with 10^6 cells. Increase in lifespan (ILS) is based on median survival time of groups of 6 mice relative to untreated controls. Long-term survivors were tumor-free on Day 45.
as §3, §4

L1210 leukemia cells = assay: cells; type: cell-based, mouse; settings: Mus musculus, L1210, read-out: In Vitro Activity IC50
Experimental: Cells were exposed continuously upon cloning into medium containing 0.2 percent Noble agar. After incubation at 37° C. in a CO2 incubator for 3 days, colonies were stained with viable cell specific formazan stain and, 24 hours later, were enumerated by a colony counter (Biotran II, New Brunswick Scientific Co., Edison, N.J.) adjusted to identify colonies of more than 50 cells. The concentration which reduced cloning efficiency by 50 percent IC50) was determined by interpolation.

iv P388 leukemia = settings: mouse, in vivo
Description: as §5, §6, §7

in vivo [3] = assay: in vivo; design: species or system mouse; settings: mouse, in vivo, ip
Description: as §1

[4] = system: sc mammary adenocarcinoma 16/c; assay: in vivo; design: species or system mouse; settings: mouse, in vivo
Description: as §1

CC[C@@]1(O)C(=O)OCc2c1cc1n(c2=O)Cc2cc3c(CN(C)C)c(O)ccc3nc2-1 [Compound No. 1S, (20 S) 9-Dimethylaminomethyl-10-hydroxycamptothecin Acetate Salt]
ILS (P388/Mitoxantrone; 3.2 mg/kg): 29% | NCK (net tumor cell kill) (P388/Mitoxantrone; 3.2 mg/kg): 0 log | ILS (P388/Mitoxantrone; 5.4 mg/kg): 57% | NCK (net tumor cell kill) (P388/Mitoxantrone; 5.4 mg/kg): 2.1 log | ILS (P388/Mitoxantrone; 9 mg/kg): 79% | NCK (net tumor cell kill) (P388/Mitoxantrone; 9 mg/kg): 3.6 log | NCK (net tumor cell kill) (P388/Mitoxantrone; 15 mg/kg): 5.7 log | ILS (P388/Mitoxantrone; 25 mg/kg): toxic | sensitivity / resistance of subline (P388/Mitoxantrone; P388/mitoxantrone in mice): retained sensitivity | TGI at the maximally tolerated dose ([1]; mouse, in vivo): 74 | Tumor growth inhibition (TGI) ([1]; mouse, in vivo, 1.5 mg/kg): 0% | Tumor growth inhibition (TGI) ([1]; mouse, in vivo, 3 mg/kg): 0% | Tumor growth inhibition (TGI) ([1]; mouse, in vivo, 6 mg/kg): 21% | Tumor growth inhibition (TGI) ([1]; mouse, in vivo, 12 mg/kg): 0% | Mice without Palpable Tumors ([1]; mouse, in vivo, 24 mg/kg): 1/8 | Increase in Lifespan (ILS) or Inhibition of Tumor Growth (TGI) ([1]; mouse, in vivo, sc): 85 % TGI | inhibition of tumor growth at the maximally tolerated dose ([1]; mouse, in vivo, sc): > 70 | Tumor growth inhibition (TGI) ([1]; sc Madison lung, C/iv (every 3 hours x4 on Days 1, 5 and 9), 0.19 mg/kg/injection): 0% | Tumor growth inhibition (TGI) ([1]; sc Madison lung, C/iv (every 3 hours x4 on Days 1, 5 and 9), 0.38 mg/kg/injection): 41% | Tumor growth inhibition (TGI) ([1]; sc Madison lung, C/iv (every 3 hours x4 on Days 1, 5 and 9), 0.75 mg/kg/injection): 63% | Tumor growth inhibition (TGI) ([1]; sc Madison lung, C/iv (every 3 hours x4 on Days 1, 5 and 9), 1.5 mg/kg/injection): 85% | Tumor growth inhibition (TGI) ([1]; sc Madison lung, C/iv (every 3 hours x4 on Days 1, 5 and 9), 3 mg/kg/injection): toxic | Mice without Palpable Tumors ([1]; sc Madison lung, C/iv, 0.75 mg/kg/injection): 1/8 | Mice without Palpable Tumors ([1]; sc Madison lung, C/iv, 1.5 mg/kg/injection): 3/8 | Increase in lifespan (ILS) (ip colon carcinoma 26; 5 mg/kg/injection): 5% | Increase in lifespan (ILS) (ip colon carcinoma 26; 10 mg/kg/injection): 25% | Increase in lifespan (ILS) (ip colon carcinoma 26; 20 mg/kg/injection): toxic | Increase in lifespan (ILS) (ip colon carcinoma 26; 40 mg/kg/injection): toxic | Increase in Lifespan (ILS) or Inhibition of Tumor Growth (TGI) (iv Lewis lung carcinoma; iv Lewis Lung Carcinoma, optimal doses and optimal schedules, Acetate Salt): Curative | Increase in lifespan (ILS) (iv Lewis lung carcinoma; 3.2 mg/kg/injection): 16% | Increase in lifespan (ILS) (iv Lewis lung carcinoma; 5.4 mg/kg/injection): 37% | Increase in lifespan (ILS) (iv Lewis lung carcinoma; 15 mg/kg/injection): > 200% | Increase in lifespan (ILS) (iv Lewis lung carcinoma; 25 mg/kg/injection): toxic | Long-Term Survivors (iv Lewis lung carcinoma; 9 mg/kg/injection): 1/7 | Long-Term Survivors (iv Lewis lung carcinoma; 15 mg/kg/injection): 7/7 | MTD (in vivo [2]): 15 mg/kg | IC50 (L1210 leukemia cells): 56 nM | Increase in lifespan (ILS) (iv P388 leukemia; 3.2 mg/kg): 42% | Increase in lifespan (ILS) (iv P388 leukemia; 5.4 mg/kg): 58% | ILS (iv P388 leukemia; 15 mg/kg): 125 | Increase in lifespan (ILS) (iv P388 leukemia; 15 mg/kg): 132% | cures (iv P388 leukemia; 15 mg/kg): 1/6 | Long-Term Survivors (iv P388 leukemia; 25 mg/kg): 2/6 | Increase in Lifespan (ILS) or Inhibition of Tumor Growth (TGI) (iv P388 leukemia; iv): Curative | Increase in lifespan (ILS) (iv P388 leukemia; iv, 7.9 mg/kg): 65% | Increase in lifespan (ILS) (iv P388 leukemia; iv, 14 mg/kg): 145% | Long-Term Survivors (iv P388 leukemia; iv, 19 mg/kg): 2/6 | Increase in lifespan (ILS) (iv P388 leukemia; iv, 25 mg/kg): toxic | MTD (in vivo [3]): 10 mg/kg | Mice without Palpable Tumors ([4]; 5 mg/kg): 2/8 | Tumor growth inhibition (TGI) ([4]; 5 mg/kg): 61% | Mice without Palpable Tumors ([4]; 10 mg/kg): 5/8 | Tumor growth inhibition (TGI) ([4]; 20 mg/kg): toxic | Mice without Palpable Tumors ([4]; […]): 1/8 | Increase in Lifespan (ILS) or Inhibition of Tumor Growth (TGI) ([4]; sc): 96 % TGI | Tumor growth inhibition (TGI) ([4]; sc): 73
